System: 996289-038-R-J1-PDC complex spheroid viability
Test: Anticancer human tumor 996289-038-R-J1-PDC patient-derived colon adenocarcinoma cell line growth inhibition [CLK]
Conditions: for IC50: curve of first compound; for viability, T/C: stronger effect = lower value; active means viability on the fitted dose curve at most 10% of control; inactive means the rest
Method in brief: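 Patient-derived tumor cells grown as complex spheroids with HUVEC endothelial cells and mesenchymal stem cells, treated with drug combinations. Concentrations descend in half-log steps from near clinical Cmax, or from 10 microM if Cmax unknown.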
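Further: spheroids exposed to the agents for 7 days before readout.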

CC(C)CC(NC(=O)C(Cc1ccccc1)NC(=O)c1cnccn1)B(O)O (configuration not stated) + CNC(=O)c1ccc(Nc2nc(OC3CCCC3)c3c(-c4ccc5nc(C)oc5c4)c[nH]c3n2)c(OC)c1
1.32 nM: IC50 (second compound 1 µM)
1.1 nM: IC50 (second compound 10 µM)
1.84 nM: IC50 (second compound 0.316 µM)
1.14 nM: IC50 (second compound 3.16 µM)
active: viability, T/C (second compound 0.0316 µM, first compound 0.00949 µM) 4.49% | viability, T/C (second compound 0.0316 µM, first compound 0.03 µM) 0.95% | viability, T/C (second compound 0.0316 µM, first compound 0.0949 µM) 3.14% | viability, T/C (second compound 0.0316 µM, first compound 0.3 µM) 0.51% | viability, T/C (second compound 0.1 µM, first compound 0.00949 µM) 1.94% | viability, T/C (second compound 0.1 µM, first compound 0.03 µM) 0.61% | viability, T/C (second compound 0.1 µM, first compound 0.0949 µM) 0.54% | viability, T/C (second compound 0.1 µM, first compound 0.3 µM) 0.26% | viability, T/C (second compound 0.316 µM, first compound 0.00949 µM) 0.98% | viability, T/C (second compound 0.316 µM, first compound 0.03 µM) 1.34% | viability, T/C (second compound 0.316 µM, first compound 0.0949 µM) 0.59% | viability, T/C (second compound 0.316 µM, first compound 0.3 µM) 1.22% | viability, T/C (second compound 1 µM, first compound 0.003 µM) 9.51% | viability, T/C (second compound 1 µM, first compound 0.00949 µM) 0.47% | viability, T/C (second compound 1 µM, first compound 0.03 µM) 0.42% | viability, T/C (second compound 1 µM, first compound 0.0949 µM) 3.6% | viability, T/C (second compound 1 µM, first compound 0.3 µM) 1.03% | viability, T/C (second compound 3.16 µM, first compound 0.003 µM) 6.51% | viability, T/C (second compound 3.16 µM, first compound 0.00949 µM) 1.11% | viability, T/C (second compound 3.16 µM, first compound 0.03 µM) 0.54% | viability, T/C (second compound 3.16 µM, first compound 0.0949 µM) 0.85% | viability, T/C (second compound 3.16 µM, first compound 0.3 µM) 1.44% | viability, T/C (second compound 10 µM, first compound 0.003 µM) 6.54% | viability, T/C (second compound 10 µM, first compound 0.00949 µM) 1.51% | viability, T/C (second compound 10 µM, first compound 0.03 µM) 0.65% | viability, T/C (second compound 10 µM, first compound 0.0949 µM) 0.7% | viability, T/C (second compound 10 µM, first compound 0.3 µM) 2.05%
inactive: viability, T/C (second compound 0.0316 µM, first compound 0.000949 µM) 121% | viability, T/C (second compound 0.0316 µM, first compound 0.003 µM) 76.2% | viability, T/C (second compound 0.1 µM, first compound 0.000949 µM) 139% | viability, T/C (second compound 0.1 µM, first compound 0.003 µM) 70% | viability, T/C (second compound 0.316 µM, first compound 0.000949 µM) 76.2% | viability, T/C (second compound 0.316 µM, first compound 0.003 µM) 30.4% | viability, T/C (second compound 1 µM, first compound 0.000949 µM) 66.4% | viability, T/C (second compound 3.16 µM, first compound 0.000949 µM) 58.1% | viability, T/C (second compound 10 µM, first compound 0.000949 µM) 56.3%
4.57 nM: IC50 (second compound 0.0316 µM)
4.21 nM: IC50 (second compound 0.1 µM)

— PubChem BioAssay AID2060600 (Molecular Pharmacology Branch, DTP, NCI, 2025)
